Experimental data from US10039846B2, “Compositions targeting bradykinin receptor B1 for medical imaging of cancer and other disorders” (BRITISH COLUMBIA CANCER AGENCY BRANCH, priority 2012, dated 2018).
Where “and” joins values, the source holds several entries; their conditions need not be identical. Equal entries are not always repeated. Where two headings read alike, the source gives them in different places. Where a SMILES comes first, the peptide text is derived from it. Where no end group is shown, it is not given here. [ ]: non-standard residue; d: D form. The star is where a group is joined. DOTA = O=C(O)CN1CCN(CC(=O)O)CCN(CC(=O)*)CCN(CC(=O)O)CC1; Hyp = O=C(O)[C@@H]1C[C@@H](O)CN1; Cha = N[C@@H](CC1CCCCC1)C(=O)O; PEG2 = NCCOCCOCCC(=O)O; Ahx = NCCCCCC(=O)O; Sar = CNCC(=O)O

Legend:
[1] = in vivo; settings: NODSCID/IL2RKO, mouse, total radioactivity
Experimental: (§1) ^68Ga labeling of Peptide 4 was performed in NaOAc buffer (pH 4.1) at 110° C. for 10 min, and [^68Ga]P03083 was purified by HPLC. PET imaging and biodistribution studies were performed in NODSCID/IL2RKO mice bearing both B1R-negative HEK293T:GFP tumour and B1R-positive HEK293T:hB1R tumour.

[2] = test system: B1R-negative HEK293T:GFP tumour and B1R-positive HEK293T:hB1R tumour; experiment: in vivo; settings: mouse
Experimental: as §1

[3] = test system: HEK-293 and HEK-293/BKRB1 tumours; experiment: PET/CT imaging of 68Ga-labelled peptides in tumour-bearing mice; settings: PET/CT 60 minutes after intravenous injection
Experimental: (§2) For in vivo imaging, HEK-293 and HEK-293 cells stably transfected with the human bradykinin receptor B1 (HEK-293/BKRB1) were inoculated in the flank of immunodeficient mice (NODSCID IL2rKO). […] A computer tomography image of the mouse was obtained for organ localization and attenuation correction, followed by PET imaging, using a Siemens Inveon multimodality preclinical scanner. Images were acquired over 10-15 minutes for each animal.

[4] = test system: HEK-293 and HEK-293/BKRB1 tumours; settings: mouse
Experimental: as §2

[5] = molecular target: T1, B1R (Homo sapiens, UniProt P46663); experiment: Competitive binding assay with 3H radioligand on CHO-K1 cell membranes over-expressing human B1R; set-up: purchased Perkin Elmer Inc., Waltham, Mass; ES-091-M400UA; host or cells: CHO-K1 cells over-expressing human B1R (membrane preparation)
T1 sequence (P46663 1-353): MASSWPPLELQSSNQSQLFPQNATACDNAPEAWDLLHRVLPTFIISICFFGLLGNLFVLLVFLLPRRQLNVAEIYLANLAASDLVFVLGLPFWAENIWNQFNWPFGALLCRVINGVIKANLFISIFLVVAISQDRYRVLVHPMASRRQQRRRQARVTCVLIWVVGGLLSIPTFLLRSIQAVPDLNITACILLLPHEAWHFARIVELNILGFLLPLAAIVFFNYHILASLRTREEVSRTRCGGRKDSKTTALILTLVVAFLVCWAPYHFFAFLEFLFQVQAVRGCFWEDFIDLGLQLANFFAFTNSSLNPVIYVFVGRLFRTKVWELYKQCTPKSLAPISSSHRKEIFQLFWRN
Experimental: The ability of the peptide and small molecule B1R targeting compounds to bind to B1R was assessed in competitive binding assay as described below.
Preparation of Cell Membranes: Ready to use cell membranes (12.5 μg/μL) from CHO-K1 cells over-expressing human B1R were obtained from Perkin Elmer Inc., Waltham, Mass. (cat. no. ES-091-M400UA). Binding using cell membranes from HEK293T::GFP::hB1R (from Example 3) was also tested. In the latter case, the membranes were prepared as follows: 90% confluent cells grown in large flask, T225, were detached and pelleted in a 50 mL conical tube using centrifuge at 1,200 rpm for 5 minutes. Afterward, cells were re-suspended in 20-30 mL of cold 50 mM Tris-HCl pH 7.4. Ice cold cells were disrupted for 15 seconds at 15,000 rpm with a Polytron PT3100 (Kinematica AG, Lucerne, Switzerland). The solution was aliquoted and centrifuged at 4° C. at 17,000×g for 30 minutes. The supernatant was discarded, and then the pellet was dissolved in 1-2 mL of cold salt solution containing 50 mM Tris-HCl pH 7.4 and 100 mM NaCl and incubated for 1 hour on ice. The cell membranes were pelleted by centrifugation at 4° C. at 17,000×g for 30 minutes and resuspended in 200-600 μL of 50 mM Tris-HCl pH 7.4. The cell membrane extract was stored at −80° C. Protein concentration was determined by Bradford assay (cat. no. R1271, Fermentas, Thermo Fisher Scientific, Burlington, ON). 50 ug of cell membranes per well was used for the competitive binding assay. […] Radio-labelled control was H-3 labelled [Leu^9,des-Arg^10] kallidin obtained either from American Radiolabelled Chemicals Inc, St. Louis, Mo.
Competitive Binding Assays: Assays were performed using 96-well MultiScreenHTS with glass fiber filter and PVDF support obtained from Millipore Corp, Billerica, Mass. (cat. no. MSFB N6B, lot no. R8AN42424). Wells of the MultiScreen plate were pre-soaked with 0.5% of cold Poly(ethyleneimine) (PEI) (cat. no. P3143, Sigma-Aldrich, St. Louis, Mo.) for 30 minutes. Afterward, wells were washed once with 50 mM of Tris-HCl pH 7.4. Total volume per wells was 200 μL. A fixed concentration of the hot radioligand (1, 3, 5 or 12.5 nM depending on the radioligand; see Table 5) was incubated with progressively higher concentrations (10^−11 to 10^−4 M) of the non-radioactive competitor of interest in the presence of cell membranes (50 μg/well) and the assay buffer (50 mM Tris-HCl pH 7.4, 5 mM MgCl2). The MultiScreen plate was then incubated at 27° C. for 15 minutes with agitation at 300 rpm. The assay was stopped by suctioning the reaction solution through the bottom PVDF membrane filter and discarded. The membranes were washed 7× with 150 μL/well of cold 50 mM Tris-HCl pH 7.4. Radioactivity was counted using 1450 MicroBeta TriLux—Microplate Scintillation and Luminescence Counter (Perkin Elmer Inc., Shelton, Conn.).

[6] = molecular target: T2, B2R (Homo sapiens, UniProt P30411); settings: Cote et al, Peptides 2009; cited from earlier work
T2 sequence (P30411 1-391): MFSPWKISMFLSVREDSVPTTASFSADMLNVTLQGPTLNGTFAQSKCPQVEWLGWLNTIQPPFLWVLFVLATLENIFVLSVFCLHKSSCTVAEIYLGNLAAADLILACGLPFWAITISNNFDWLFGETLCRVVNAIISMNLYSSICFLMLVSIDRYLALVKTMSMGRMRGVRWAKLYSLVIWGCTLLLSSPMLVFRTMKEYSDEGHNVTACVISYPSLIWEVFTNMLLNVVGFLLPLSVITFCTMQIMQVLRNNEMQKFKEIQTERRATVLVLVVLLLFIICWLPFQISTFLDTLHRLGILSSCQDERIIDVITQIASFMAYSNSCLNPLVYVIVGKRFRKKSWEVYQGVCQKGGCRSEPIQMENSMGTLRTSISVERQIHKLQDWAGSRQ

[7] = molecular target: T1, B1R; settings: Cote et al, Peptides 2009; cited from earlier work

With `CC(C)C[C@H](NC(=O)[C@@H]1CCCN1C(=O)[C@H](CO)NC(=O)[C@H](Cc1ccccc1)NC(=O)CNC(=O)[C@@H]1CCCN1C(=O)[C@@H]1CCCN1C(=O)[C@H](CCCNC(=N)N)NC(=O)[C@H](CCCCN)NC(=O)CCCCCNC(=O)CN1CCN(CC(=O)O)CCN(CC(=O)O)CCN(CC(=O)O)CC1)C(=O)O` [[^68Ga]-Peptide 4, metal not drawn] the tissue uptake at 1 h ([1]; kidney uptake) was 74.9 ± 29.2 %ID/g, the tissue uptake at 1 h ([1]; uptakes in both B1R-negative and B1R-positive tumors) was 1.1 ± 0.4 %ID/g and the excretion of radioactivity [2] was “mainly excreted through the renal pathway”. The “specific uptake to B1R in tumours” value [2] was “No specific uptake”.

With `N=C(N)NCCC[C@H](NC(=O)[C@H](CCCCN)NC(=O)CCCCCNC(=O)CN1CCN(CC(=O)O)CCN(CC(=O)O)CCN(CC(=O)O)CC1)C(=O)N1CCC[C@H]1C(=O)N1C[C@H](O)C[C@H]1C(=O)NCC(=O)N[C@@H](CC1CCCCC1)C(=O)N[C@@H](CO)C(=O)N1CCC[C@H]1C(=O)N[C@H](Cc1ccccc1)C(=O)O` [Peptide 12, Ga-DOTA-Ahx-Lys-Arg-Pro-Hyp-Gly-Cha-Ser-Pro-(D-Phe)] the background activity [3] was “minimal background activity”, the clearance route [3] was “good clearance through the kidneys and bladder” and the “uptake / visualization of B1R+ tumour” value [3] was “Slightly higher tumour uptake”. For the same molecule, the “uptake in negative control (B1R-) tumour” value [3] was “no non-specific tumour uptake”.

For `CC(C)C[C@H](NC(=O)[C@@H]1CCCN1C(=O)[C@H](CO)NC(=O)[C@H](CC1CCCCC1)NC(=O)CNC(=O)[C@@H]1C[C@@H](O)CN1C(=O)[C@@H]1CCCN1C(=O)[C@H](CCCNC(=N)N)NC(=O)[C@H](CCCCN)NC(=O)CCOCCOCCNC(=O)CN1CCN(CC(=O)O)CCN(CC(=O)O)CCN(CC(=O)O)CC1)C(=O)O` [Peptide 3, Ga-DOTA-PEG2-Lys-Arg-Pro-Hyp-Gly-Cha-Ser-Pro-Leu] ({DOTA-PEG2}-KRP[Hyp]G[Cha]SPL-OH), the background activity ([4]; in vivo, iv) was “very low background activity”, the clearance route ([4]; in vivo, iv) was “renal and bladder clearance” and the Ki ([5]; Hot 4.6 nM BK-ANT-ARC, CHO-K1 membranes, individual assays, read-out: Ki) was 17.1 nM and 16 nM. It also gave a Ki ([5]; text of Example 5, referring to Example 4, read-out: binding affinity for B1R) of 32.8 nM.

In the case of `CC(C)C[C@H](NC(=O)[C@@H]1CCCN1C(=O)[C@H](CO)NC(=O)[C@H](CC1CCCCC1)NC(=O)CNC(=O)[C@@H]1C[C@@H](O)CN1C(=O)[C@@H]1CCCN1C(=O)[C@H](CCCNC(=N)N)NC(=O)[C@H](CCCCN)NC(=O)CCCCCNC(=O)CN1CCN(CC(=O)O)CCN(CC(=O)O)CCN(CC(=O)O)CC1)C(=O)O` [Peptide 10, Ga-DOTA-Ahx-Lys-Arg-Pro-Hyp-Gly-Cha-Ser-Pro-Leu] ({DOTA-Ahx}-KRP[Hyp]G[Cha]SPL-OH), the in vivo stability [4] is reported as “much greater in vivo stability” and the background activity ([4]; in vivo, iv) is reported as “lower background uptake”.

For “Sar-Lys-Arg-Pro-Hyp-Gly-Cha-Ser-Pro-(D-Phe) ([Sar]KRP[Hyp]G[Cha]SP[dF])”, the Ki [6] is given as greater than 10000 nM and the Ki [7] is given as 0.06 nM.

In the case of `CC(C)C[C@H](NC(=O)[C@@H]1CCCN1C(=O)[C@H](CO)NC(=O)[C@H](CC1CCCCC1)NC(=O)CNC(=O)[C@@H]1C[C@@H](O)CN1C(=O)[C@@H]1CCCN1C(=O)[C@H](CCCNC(=N)N)NC(=O)[C@H](CCCCN)NC(=O)CNC(=O)CNC(=O)CN1CCN(CC(=O)O)CCN(CC(=O)O)CCN(CC(=O)O)CC1)C(=O)O` [Peptide 8, Ga-DOTA-Gly-Gly-Lys-Arg-Pro-Hyp-Gly-Cha-Ser-Pro-Leu] ({DOTA}-GGKRP[Hyp]G[Cha]SPL-OH), the clearance route [3] is reported as “predominantly via the kidneys and bladder”, the “uptake / visualization of B1R+ tumour” value [3] is reported as “good visualization of B1R+ expressing cells” and the “uptake in negative control (B1R-) tumour” value [3] is reported as “essentially negligible non-specific uptake”.
